Reference: US20210038607A1, “OXADIAZOLYLTHIOPHENE DERIVATIVES USEFUL AS HISTONE DEACETYLASE INHIBITORS” (Karus Therapeutics Limited, priority 2018, published 2021)

Assays:
Human HDAC1 = molecular target: T1, Human HDAC1 (Homo sapiens, UniProt Q13547); experiment: HDAC1 biochemical assay, AMC-labeled peptide substrate; conditions: read-out: HDAC Isoform IC50 (nM) 1
T1 construct: full length with C-terminal His-tag and C-terminal FLAG-tag; His (C); FLAG (C); host or cells: baculovirus expression system
In short: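 Baculovirus-expressed full-length human HDAC1 with His and FLAG tags, 0.3 ng/ul, incubated 1 h at 30° C with compound and 50 μM RHKK(Ac)AMC in Tris pH 8.0 buffer with BSA and 1% DMSO. Developer then releases AMC from deacetylated substrate; fluorescence read at 360/460 nm.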

Human HDAC4 = molecular target: T2, Human HDAC4 (Homo sapiens, UniProt P56524); experiment: HDAC4 biochemical assay, class IIa-specific substrate; conditions: read-out: HDAC Isoform IC50 (nM) 4
T2 construct: amino acids 627-1085 with N-terminal GST tag; GST (N); host or cells: baculovirus expression system
In short: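 GST-tagged human HDAC4 (aa 627-1085, baculovirus) at 0.004 ng/ul was incubated 30 min at room temperature with 50 μM class IIa-specific substrate BOC-Lys(trifluoroacetyl)-AMC in Tris-HCl pH 8.0 buffer with BSA, 1% DMSO. Developer then released AMC, read at 360/460 nm.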

Human HDAC5 = molecular target: T3, Human HDAC5 (Homo sapiens, UniProt Q9UQL6); experiment: HDAC5 biochemical assay, class IIa-specific substrate; conditions: read-out: HDAC Isoform IC50 (nM) 5
T3 construct: full length with C-terminal His tag, MW=51.1 kDa; His (C); host or cells: baculovirus expression system
In short: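 Full-length C-terminal His-tagged HDAC5 from baculovirus (0.05 ng/ul) incubated 30 min at room temperature with 50 μM Boc-Lys(trifluoroacetyl)-AMC and compound, Tris pH 8.0 buffer with BSA, 1% DMSO. Developer then releases AMC; fluorescence 360/460 nm.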

Recombinant human HDAC6 = molecular target: T4, Recombinant human HDAC6 (Homo sapiens, UniProt Q9UBN7); experiment: HDAC6 biochemical assay, AMC-labeled peptide substrate; conditions: HDAC6; read-out: HDAC Isoform IC50 (nM) 6
T4 construct: full length, MW=159 kDa; GST (N); host or cells: Sf9 insect cells (baculovirus)
T4 sequence (Q9UBN7 1-1215): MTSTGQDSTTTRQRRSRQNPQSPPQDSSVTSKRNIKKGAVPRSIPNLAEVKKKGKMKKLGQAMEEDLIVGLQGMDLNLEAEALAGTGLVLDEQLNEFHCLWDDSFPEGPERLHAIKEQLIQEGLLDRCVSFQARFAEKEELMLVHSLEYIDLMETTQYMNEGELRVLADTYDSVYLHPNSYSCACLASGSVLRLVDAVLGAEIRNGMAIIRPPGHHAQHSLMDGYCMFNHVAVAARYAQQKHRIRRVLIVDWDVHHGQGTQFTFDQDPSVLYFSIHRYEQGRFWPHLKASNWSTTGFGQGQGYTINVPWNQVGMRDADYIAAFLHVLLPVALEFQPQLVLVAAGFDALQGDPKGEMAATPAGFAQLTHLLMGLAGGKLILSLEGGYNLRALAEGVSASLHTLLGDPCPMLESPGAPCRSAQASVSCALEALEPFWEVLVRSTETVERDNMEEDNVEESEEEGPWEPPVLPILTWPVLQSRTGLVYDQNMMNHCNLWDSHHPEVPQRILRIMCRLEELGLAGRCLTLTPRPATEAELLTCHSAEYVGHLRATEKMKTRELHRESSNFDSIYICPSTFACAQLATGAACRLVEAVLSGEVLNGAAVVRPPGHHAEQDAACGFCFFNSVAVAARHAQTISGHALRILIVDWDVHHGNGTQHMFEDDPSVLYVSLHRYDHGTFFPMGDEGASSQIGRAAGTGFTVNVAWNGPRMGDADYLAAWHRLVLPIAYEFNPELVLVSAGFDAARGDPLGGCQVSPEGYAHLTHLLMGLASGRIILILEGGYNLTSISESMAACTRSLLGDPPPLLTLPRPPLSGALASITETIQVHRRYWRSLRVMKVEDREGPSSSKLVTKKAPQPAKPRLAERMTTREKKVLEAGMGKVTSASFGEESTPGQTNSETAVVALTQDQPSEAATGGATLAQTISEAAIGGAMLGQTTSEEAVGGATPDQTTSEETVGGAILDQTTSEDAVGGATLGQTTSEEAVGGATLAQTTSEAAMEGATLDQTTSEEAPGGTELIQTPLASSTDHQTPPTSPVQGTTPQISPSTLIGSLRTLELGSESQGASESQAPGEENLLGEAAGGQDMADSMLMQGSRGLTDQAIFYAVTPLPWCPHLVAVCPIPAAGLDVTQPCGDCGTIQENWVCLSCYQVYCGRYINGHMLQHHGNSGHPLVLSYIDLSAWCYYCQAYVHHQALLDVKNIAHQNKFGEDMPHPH
In short: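 Two-step fluorogenic read-out: enzyme deacetylates 50 μM RHKK(Ac)AMC for 1 h at 30° C in pH 8.0 Tris buffer with BSA and 1% DMSO, then developer cleavage gives signal at Ex 360/Em 460. Enzyme: 0.3 ng/ul recombinant full-length human HDAC6, GST-tagged, Sf9-expressed.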

Human HDAC7 = molecular target: T5, Human HDAC7 (Homo sapiens, UniProt Q8WUI4); experiment: HDAC7 biochemical assay, class IIa-specific substrate; conditions: read-out: HDAC Isoform IC50 (nM) 7
T5 construct: (a.a. 518-end) with N-terminal GST tag; GST (N); host or cells: baculovirus expression system
T5 sequence (Q8WUI4 518-952 limits assumed): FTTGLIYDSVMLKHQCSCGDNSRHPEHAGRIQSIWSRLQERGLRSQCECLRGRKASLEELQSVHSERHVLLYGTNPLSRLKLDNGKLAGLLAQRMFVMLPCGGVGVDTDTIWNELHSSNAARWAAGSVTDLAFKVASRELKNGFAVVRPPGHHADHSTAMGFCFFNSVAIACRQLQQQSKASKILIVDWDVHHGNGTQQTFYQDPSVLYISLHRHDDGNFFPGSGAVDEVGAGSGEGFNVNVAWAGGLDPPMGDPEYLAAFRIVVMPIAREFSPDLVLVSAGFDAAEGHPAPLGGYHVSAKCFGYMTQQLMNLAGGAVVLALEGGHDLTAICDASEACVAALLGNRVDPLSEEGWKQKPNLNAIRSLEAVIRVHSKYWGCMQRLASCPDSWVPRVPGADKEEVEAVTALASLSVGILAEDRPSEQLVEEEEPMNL
In short: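 GST-tagged HDAC7 (a.a. 518-end, baculovirus-expressed) at 0.001 ng/ul with 50 μM Boc-Lys(trifluoroacetyl)-AMC substrate, 30 min at room temperature in pH 8.0 Tris buffer with BSA, 1% DMSO final. Developer then releases AMC; fluorescence read at 360/460 nm.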

Human HDAC9 = molecular target: T6, Human HDAC9 (Homo sapiens, UniProt Q9UKV0); experiment: HDAC9 biochemical assay, class IIa-specific substrate; conditions: read-out: HDAC Isoform IC50 (nM) 9
T6 construct: amino acids 604-1066 with C-terminal His tag; His (C); host or cells: baculovirus expression system
In short: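 HDAC9 residues 604-1066 (C-terminal His tag, baculovirus-expressed) at 0.06 ng/ul with 50 μM class IIa substrate Boc-Lys(trifluoroacetyl)-AMC in Tris-HCl pH 8.0 buffer with BSA and 1% DMSO. 30 min at room temperature, then developer added; fluorescence read at 360/460 nm Ex/Em.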

T2 sequence (P56524 627-1084 limits assumed): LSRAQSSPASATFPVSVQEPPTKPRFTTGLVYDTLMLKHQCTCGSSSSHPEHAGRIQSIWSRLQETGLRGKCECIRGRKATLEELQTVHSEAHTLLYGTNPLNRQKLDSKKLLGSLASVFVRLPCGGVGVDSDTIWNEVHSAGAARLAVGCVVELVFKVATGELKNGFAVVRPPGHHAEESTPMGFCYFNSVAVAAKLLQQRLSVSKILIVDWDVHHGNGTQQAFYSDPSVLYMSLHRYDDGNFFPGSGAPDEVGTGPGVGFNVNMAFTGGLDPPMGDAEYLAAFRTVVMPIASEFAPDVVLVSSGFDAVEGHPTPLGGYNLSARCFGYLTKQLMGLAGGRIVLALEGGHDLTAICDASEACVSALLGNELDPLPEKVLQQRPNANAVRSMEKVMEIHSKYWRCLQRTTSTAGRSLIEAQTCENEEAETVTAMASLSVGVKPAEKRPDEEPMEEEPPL
T3 sequence (Q9UQL6 656-1122 limits assumed): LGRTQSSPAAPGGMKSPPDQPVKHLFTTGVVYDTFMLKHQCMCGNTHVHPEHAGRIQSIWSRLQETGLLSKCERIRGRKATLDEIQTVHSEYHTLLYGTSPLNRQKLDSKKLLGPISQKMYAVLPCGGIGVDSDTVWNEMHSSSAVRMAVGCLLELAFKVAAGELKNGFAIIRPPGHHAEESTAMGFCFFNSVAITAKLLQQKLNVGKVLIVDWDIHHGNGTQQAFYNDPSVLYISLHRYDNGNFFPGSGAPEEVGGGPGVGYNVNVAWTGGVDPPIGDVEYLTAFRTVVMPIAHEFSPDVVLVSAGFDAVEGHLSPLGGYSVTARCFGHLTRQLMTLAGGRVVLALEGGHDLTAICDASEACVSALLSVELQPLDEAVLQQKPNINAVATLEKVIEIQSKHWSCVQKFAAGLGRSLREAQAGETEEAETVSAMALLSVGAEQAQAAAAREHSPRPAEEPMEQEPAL
T6 sequence (Q9UKV0 604-1066 isoform Q9UKV0-5): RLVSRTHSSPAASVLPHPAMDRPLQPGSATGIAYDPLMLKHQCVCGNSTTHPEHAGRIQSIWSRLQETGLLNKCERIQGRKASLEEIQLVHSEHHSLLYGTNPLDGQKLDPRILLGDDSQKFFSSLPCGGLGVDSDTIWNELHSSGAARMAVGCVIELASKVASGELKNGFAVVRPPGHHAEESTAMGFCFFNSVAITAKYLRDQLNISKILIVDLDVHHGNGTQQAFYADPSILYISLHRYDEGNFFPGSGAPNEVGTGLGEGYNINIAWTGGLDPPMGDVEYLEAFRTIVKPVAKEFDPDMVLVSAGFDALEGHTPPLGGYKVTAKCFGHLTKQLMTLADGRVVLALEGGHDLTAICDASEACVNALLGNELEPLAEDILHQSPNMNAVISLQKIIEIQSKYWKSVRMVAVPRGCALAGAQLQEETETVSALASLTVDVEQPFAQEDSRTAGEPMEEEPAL
T1 sequence (Q13547 whole entry, canonical isoform): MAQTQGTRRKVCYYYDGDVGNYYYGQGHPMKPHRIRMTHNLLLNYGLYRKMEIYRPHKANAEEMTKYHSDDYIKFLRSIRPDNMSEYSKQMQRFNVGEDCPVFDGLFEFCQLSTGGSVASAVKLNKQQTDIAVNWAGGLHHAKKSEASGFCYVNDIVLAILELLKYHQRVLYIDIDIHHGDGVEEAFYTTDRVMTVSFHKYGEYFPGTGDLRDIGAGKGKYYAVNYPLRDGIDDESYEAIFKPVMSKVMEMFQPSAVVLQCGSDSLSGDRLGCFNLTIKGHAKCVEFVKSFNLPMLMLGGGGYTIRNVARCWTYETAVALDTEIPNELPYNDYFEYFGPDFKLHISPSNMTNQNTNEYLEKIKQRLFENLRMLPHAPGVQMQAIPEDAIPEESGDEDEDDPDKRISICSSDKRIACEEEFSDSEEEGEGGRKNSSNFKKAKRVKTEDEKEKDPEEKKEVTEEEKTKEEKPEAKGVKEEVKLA

| SMILES | IC50 (Human HDAC1) [nM] | IC50 (Human HDAC4) [nM] | IC50 (Human HDAC5) [nM] | IC50 (Recombinant human HDAC6) [nM] | IC50 (Human HDAC7) [nM] | IC50 (Human HDAC9) [nM] |
| --- | --- | --- | --- | --- | --- | --- |
| FC(F)(F)c1ncc(N(Cc2ccc(-c3noc(C(F)(F)F)n3)s2)c2cnccn2)cn1 [Example CV, N-(Pyrazin-2-yl)-2-(trifluoromethyl)-N-({5-[5-(trifluoromethyl)-1,2,4-oxadiazol-3-yl]thiophen-2-yl}methyl)pyrimidin-5-amine] | > 10000 | ≤ 1000 | ≤ 1000 | ≤ 10000 | ≤ 1000 | ≤ 10000 |
| Cc1cncc(N(Cc2ccc(-c3noc(C(F)(F)F)n3)s2)c2cc(C(F)(F)F)cnn2)n1 [Example EM, N-(6-Methylpyrazin-2-yl)-5-(trifluoromethyl)-N-({5-[5-(trifluoromethyl)-1,2,4-oxadiazol-3-yl]thiophen-2-yl}methyl)pyridazin-3-amine] | > 10000 | ≤ 10000 | ≤ 10000 | ≤ 1000 | ≤ 10000 | > 10000 |
| Cn1ccc2c(N(Cc3ccc(-c4noc(C(F)(F)F)n4)s3)c3cnccn3)ncnc21 [Example CM, N-{7-Methyl-7H-pyrrolo[2,3-d]pyrimidin-4-yl}-N-({5-[5-(trifluoromethyl)-1,2,4-oxadiazol-3-yl]thiophen-2-yl}methyl)pyrazin-2-amine] | > 10000 | ≤ 10000 | ≤ 10000 | ≤ 10000 | ≤ 10000 | ≤ 10000 |
| FC(F)(F)c1nc(-c2ccc(CN(c3ccc(N4CCCC4)nc3)c3cnccn3)s2)no1 [Example AP, N-[6-(Pyrrolidin-1-yl)pyridin-3-yl]-N-({5-[5-(trifluoromethyl)-1,2,4-oxadiazol-3-yl]thiophen-2-yl}methyl)pyrazin-2-amine] | > 10000 | ≤ 10000 | ≤ 10000 | > 10000 | ≤ 10000 | ≤ 10000 |
| Cc1cc(C)nc(N(Cc2ccc(-c3noc(C(F)(F)F)n3)s2)c2cnccn2)n1 [Example AZ, 4,6-Dimethyl-N-(pyrazin-2-yl)-N-({5-[5-(trifluoromethyl)-1,2,4-oxadiazol-3-yl]thiophen-2-yl}methyl)pyrimidin-2-amine] | > 10000 | > 10000 | ≤ 10000 | ≤ 10000 | > 10000 | > 10000 |
| FC(F)(F)c1nc(-c2ccc(CN(c3cnccn3)c3nccc4nccnc34)s2)no1 [Example AL, N-{Pyrido[3,4-b]pyrazin-5-yl}-N-({5-[5-(trifluoromethyl)-1,2,4-oxadiazol-3-yl]thiophen-2-yl}methyl)pyrazin-2-amine] | > 10000 | ≤ 10000 | ≤ 10000 | ≤ 10000 | ≤ 10000 | ≤ 10000 |
| FC(F)(F)c1cnnc(N(Cc2ccc(-c3noc(C(F)(F)F)n3)s2)c2ncccc2N2CCOCC2)c1 [Example EH, N-[3-(Morpholin-4-yl)pyridin-2-yl]-5-(trifluoromethyl)-N-({5-[5-(trifluoromethyl)-1,2,4-oxadiazol-3-yl]thiophen-2-yl}methyl)pyridazin-3-amine] | > 10000 | ≤ 10000 | ≤ 10000 | ≤ 10000 | ≤ 10000 | > 10000 |

Continued, values first:

| IC50 (Human HDAC1) [nM] | IC50 (Human HDAC4) [nM] | IC50 (Human HDAC5) [nM] | IC50 (Recombinant human HDAC6) [nM] | IC50 (Human HDAC7) [nM] | IC50 (Human HDAC9) [nM] | SMILES |
| --- | --- | --- | --- | --- | --- | --- |
| > 10000 | ≤ 500 | ≤ 500 | ≤ 1000 | ≤ 500 | ≤ 500 | FC(F)(F)c1nc(-c2ccc(CN(c3cnccn3)c3cnc4[nH]ccc4n3)s2)no1 [Example BN, N-{5H-Pyrrolo[2,3-b]pyrazin-2-yl}-N-({5-[5-(trifluoromethyl)-1,2,4-oxadiazol-3-yl]thiophen-2-yl}methyl)pyrazin-2-amine] |
| > 10000 | ≤ 500 | ≤ 500 | ≤ 10000 | ≤ 500 | ≤ 1000 | Cc1ncncc1N(Cc1ccc(-c2noc(C(F)(F)F)n2)s1)c1cnccn1 [Example CX, 4-Methyl-N-(pyrazin-2-yl)-N-({5-[5-(trifluoromethyl)-1,2,4-oxadiazol-3-yl]thiophen-2-yl}methyl)pyrimidin-5-amine] |
| > 10000 | ≤ 10000 | ≤ 10000 | ≤ 10000 | ≤ 10000 | ≤ 10000 | Cc1ccnc(N(Cc2ccc(-c3noc(C(F)(F)F)n3)s2)c2cnccn2)n1 [Example AT, 4-Methyl-N-(pyrazin-2-yl)-N-({5-[5-(trifluoromethyl)-1,2,4-oxadiazol-3-yl]thiophen-2-yl}methyl)pyrimidin-2-amine] |
| > 10000 | ≤ 10000 | ≤ 10000 | ≤ 10000 | ≤ 1000 | ≤ 10000 | FC(F)(F)c1nc(-c2ccc(CN(c3cnccn3)c3ccc4nncn4n3)s2)no1 [Example DU, N-{[1,2,4]Triazolo[4,3-b]pyridazin-6-yl}-N-({5-[5-(trifluoromethyl)-1,2,4-oxadiazol-3-yl]thiophen-2-yl}methyl)pyrazin-2-amine] |
| > 10000 | ≤ 10000 | ≤ 1000 | ≤ 1000 | ≤ 10000 | ≤ 10000 | FC(F)(F)c1nc(-c2ccc(CN(c3cnccn3)c3cc4nccnc4cn3)s2)no1 [Example AF, N-{Pyrido[3,4-b]pyrazin-7-yl}-N-({5-[5-(trifluoromethyl)-1,2,4-oxadiazol-3-yl]thiophen-2-yl}methyl)pyrazin-2-amine] |
